Blank lines part the entries; values can stand above or below the molecule they belong to. Bridge positions count the residues as written; N and C are the ends. Primed or numbered codes have the meaning given here. Peptide text beside a SMILES is read from it. C(Alexa680) = cysteine labeled with Alexa680 (AlexaFluor680); PEG6′ = PEG6 spacer
What was measured:
NbALFA = test: SPR measurements of NbALFA binding (Biacore T200, multi cycle kinetics, 1:1 binding model); settings: for Kd / ka / kd: 25° C., HBS-EP+ buffer, biotinylated NbALFA captured
Procedure: Affinity measurements were performed using a Biacore T200 (GE Healthcare, Biacore T200 control Software 3.2). […] A freshly docked Biotin CAPture chip was rehydrated overnight in the instrument (standby mode). […] The immobilization of the Nanobody was done for 180 s at 10 μL/min on FC2 followed by quenching of unbound streptavidin by 0.1 mM biocytin for 60 s and 30 μL/min on both flow cells. […] After each cycle, the surface was regenerated for 120 s with 10 μL/min using regeneration solution. All measurements were performed at 25° C. using HBS-EP+ buffer (Cytiva Europe, Cat. no BR100669). The control responses from FC1 were subtracted by the sample measurement in FC2 (FC2−FC1) followed by subtraction of the 0 nM blank injection. Resulting binding curves of this multi cycle kinetic experiment were fitted using the Biacore T200 Evaluation Software 3.2 and a 1:1 binding model.

[1] = Plasma stability, mouse plasma; settings: for remaining at 2 h, 10 µM / remaining at 6 h, 10 µM / remaining at 24 h, 10 µM: Balb C, Li-heparin plasma; for remaining at 2 h, 10 µM / remaining at 6 h, 10 µM / remaining at 24 h, 10 µM / half-life: mouse; for half-life: plasma
Procedure: Plasma stability measurements were performed by spiking 5 μl of a 1 mM compound stock solution in DMSO into 495 μl of human or mouse Li-heparin plasma (Innovative Research, Cat. No, IPLALIH5OML (human) and IMS-BC-N (Balb C mouse). The spiked plasma was distributed in 50 μl aliquots into capped PCR tubes for incubation at 37° C. At each time point (0, 2, 6, 24 hours*) 3*aliquots were withdrawn from the incubator. Enzymatic reactions were quenched directly after withdrawal by adding 100 μl of acetonitrile/formic acid=99/1 (v/v). Quenched samples were stored at ambient temperature until the end of the incubation period (24 hrs*). After centrifugation, the supernatant was transferred into fresh vials and analyzed by LC-MS/MS in ESI positive mode (Waters ACQUITY UPLC I-Class System (SM-FTN) with Xevo TQD triple quadrupole mass spectrometer with control software Waters MassLynx). […] Values below the limit of quantification (0.1 μM) and outliers of triplicate results were excluded from further calculations. An exponential regression curve was fitted onto the concentration results. Half-life times were calculated from the slope of the regression curve (t1/2=ln(2)/slope).
For some samples, as indicated below, the incubation time was 6 hours. The 24 hour data was measured in triplicates whereas the 6 hour data was measured in duplicates.

[2] = Plasma stability, human plasma; settings: for remaining at 24 h, 10 µM / remaining at 2 h, 10 µM / remaining at 6 h, 10 µM / half-life: human; for remaining at 24 h, 10 µM: Li-heparin plasma; for remaining at 2 h, 10 µM / remaining at 6 h, 10 µM: human Li-heparin plasma; for half-life: plasma
anti-ALFA VHH = test: binding affinity to the anti-ALFA VHH (log(agonist) vs. response, variable slope); settings: for LogEC50: best-fit values, log(agonist) vs. response, variable slope; for EC50: binding to anti-ALFA VHH
[3] = system: target expressing cells previously incubated with the NbALFA×anti-Target Adaptor-Protein; test: FACS cell binding analysis of linear and cyclic ALFA-peptides (AlexaFluor680); type: cell-based; settings: for binding to target expressing cells (AlexaFluor680 signal): 4 nM to 1024 nM peptide, 30 min at 4° C., after 100 nM NbALFA×anti-Target Adaptor-Protein; for binding on the controls: target-negative cells, pre-incubation with PBS or NbALFA×non-binder
Procedure: Cells were seeded in a 96-well microtiter plate (round button) to a final density of 2×10^5 and incubated in the presence of 100 nM NbALFA×anti-Target purified Adaptor-Protein (binds with one moiety to ALFA peptide and with the other moiety to cell presented target) or, as a negative control in the presence of 100 nM NbALFA×non-binder (binds with one moiety to the ALFA peptide and with the other moiety to a target which is not available in this experiment) or PBS for 30 min at 4° C. Cells were then washed and incubated with different concentrations (4 nM, 16 nM, 64 nM, 256 nM, and 1024 nM) of the linear [Ac(C-Alexa680)(PEG6)PSRLEEELRRRLTE-NH2] or cyclic [Ac(C-Alexa680)(PEG6)PSRLE(E)ELR(K)RLTE-NH2] ALFA peptide for another 30 min at 4° C. After rewashing, the cells were measured in FACS Canto II (BD Biosciences). AlexaFluor680 signal was used to detect the binding of ALFA peptides. Therefore, excitation Laser Line 633 nm was used to detect the AlexaFluor 680 signal.

[4] = mouse plasma, 37° C., timepoint 0 h
[5] = mouse plasma, 37° C., timepoint 0 h, calibration range 0.1 to 10 μM
[6] = mouse plasma, 37° C., timepoint 2 h
[7] = mouse plasma, 37° C., timepoint 6 h
[8] = mouse plasma, 37° C., timepoint 24 h
[9] = Flag (half-life, assay exceeded), mouse plasma, 37° C.
[10] = Half-life time, mouse plasma, 37° C., incubation 24 h (triplicates) or 6 h (duplicates)
[11] = human plasma, 37° C., timepoint 0 h
[12] = human plasma, 37° C., timepoint 0 h, calibration range 0.1 to 10 μM
[13] = human plasma, 37° C., timepoint 2 h
[14] = human plasma, 37° C., timepoint 6 h
[15] = human plasma, 37° C., timepoint 24 h
[16] = Half-life time, human plasma, 37° C., incubation 24 h (triplicates) or 6 h (duplicates)

Molecule: CC(=O)N[C@@H](CO)C(=O)N[C@@H](CCCNC(=N)N)C(=O)N[C@@H](CC(C)C)C(=O)N[C@@H](CCC(=O)O)C(=O)N[C@H]1CCC(=O)NCCCC[C@@H](C(=O)N[C@@H](CCCNC(=N)N)C(=O)N[C@@H](CC(C)C)C(=O)N[C@H](C(=O)N[C@@H](CCC(=O)O)C(N)=O)[C@@H](C)O)NC(=O)[C@H](CCCNC(=N)N)NC(=O)[C@H](CC(C)C)NC(=O)[C@H](CCC(=O)O)NC1=O [SD15194, Ac-Ser-Arg-Leu-Glu-(cyclo5)Glu-Glu-Leu-Arg-(cyclo9)Lys-Arg-Leu-Thr-Glu-NH2] (Ac-SRLEEELRKRLTE-NH2; lactam 5-9)
- Kd (NbALFA): 0.0376 nM
- ka (NbALFA): 1.78e+07 M⁻¹ s⁻¹
- kd (NbALFA): 0.00067 s⁻¹
- binding with respect to NbALFA (NbALFA; in words): very good binding
- remaining at 2 h, 10 µM [1]: 95.5%
- remaining at 6 h, 10 µM [1]: 85.4%
- remaining at 24 h, 10 µM [1]: 62.3%
- Half-life time ([1]; mouse plasma, 37° C., incubation 24 h (triplicates) or 6 h (duplicates), listed as SD 00015194): 35.69 h
- Conc. (% of T0) [1, 4]: 100.0 % of T0
- Mean (compound concentration) [1, 4]: 2.57
- Tube 2 (compound concentration) [1, 4]: 2.488
- Tube 3 (compound concentration) [1, 4]: 2.617
- Tube 1 (compound concentration) [1, 5]: 2.606
- Mean (compound concentration) [1, 6]: 2.46
- Tube 1 (compound concentration) [1, 6]: 2.526
- Tube 2 (compound concentration) [1, 6]: 2.467
- Tube 3 (compound concentration) [1, 6]: 2.373
- Mean (compound concentration) [1, 7]: 2.20
- Tube 1 (compound concentration) [1, 7]: 2.178
- Tube 2 (compound concentration) [1, 7]: 2.256
- Tube 3 (compound concentration) [1, 7]: 2.154
- Mean (compound concentration) [1, 8]: 1.60
- Tube 1 (compound concentration) [1, 8]: 1.543
- Tube 2 (compound concentration) [1, 8]: 1.638
- Tube 3 (compound concentration) [1, 8]: 1.62
- half-life [1, 9]: > 1440 min
- half-life [1, 10]: > 1440 min
- Half-life time ([2]; human plasma, 37° C., incubation 24 h (triplicates) or 6 h (duplicates), listed as SD 00015194): 33.48 h
- Conc. (% of T0) [2, 11]: 100.0 % of T0
- Mean (compound concentration) [2, 11]: 2.26
- Tube 2 (compound concentration) [2, 11]: 2.271
- Tube 3 (compound concentration) [2, 11]: 2.302
- Tube 1 (compound concentration) [2, 12]: 2.215
- Mean (compound concentration) [2, 13]: 2.09
- Tube 1 (compound concentration) [2, 13]: 2.086
- Tube 2 (compound concentration) [2, 13]: 2.052
- Tube 3 (compound concentration) [2, 13]: 2.117
- Mean (compound concentration) [2, 14]: 1.99
- Tube 1 (compound concentration) [2, 14]: 1.884
- Tube 2 (compound concentration) [2, 14]: 2.057
- Tube 3 (compound concentration) [2, 14]: 2.041
- Mean (compound concentration) [2, 15]: 1.36
- Tube 1 (compound concentration) [2, 15]: 1.322
- Tube 2 (compound concentration) [2, 15]: 1.377
- Tube 3 (compound concentration) [2, 15]: 1.368
- remaining at 24 h, 10 µM [2]: 59.9%
- remaining at 2 h, 10 µM [2]: 92.1%
- remaining at 6 h, 10 µM [2]: 88.1%
- half-life ([2]; Flag (half-life, assay exceeded), human plasma, 37° C.): > 1440 min
- half-life [2, 16]: > 1440 min
- LogEC50 (anti-ALFA VHH): 0.7763
- EC50 (anti-ALFA VHH): 5.97 nM
- EC50 (anti-ALFA VHH; listed as Ac_5E-9Cyclo_ALFA): 6 nM

- Kd (NbALFA): 0.436 nM
- ka (NbALFA): 1.81e+07 M⁻¹ s⁻¹
- kd (NbALFA): 0.0079 s⁻¹
- remaining at 2 h, 10 µM [1]: 94.3%
- remaining at 6 h, 10 µM [1]: 80.5%
- remaining at 24 h, 10 µM [1]: 52.5%
- Conc. (% of T0) [1, 4]: 100.0 % of T0
- Mean (compound concentration) [1, 4]: 2.42
- Tube 2 (compound concentration) [1, 4]: 2.424
- Tube 3 (compound concentration) [1, 4]: 2.497
- Tube 1 (compound concentration) [1, 5]: 2.336
- Mean (compound concentration) [1, 6]: 2.28
- Tube 1 (compound concentration) [1, 6]: 2.277
- Tube 2 (compound concentration) [1, 6]: 2.329
- Tube 3 (compound concentration) [1, 6]: 2.237
- Mean (compound concentration) [1, 7]: 1.95
- Tube 1 (compound concentration) [1, 7]: 1.96
- Tube 2 (compound concentration) [1, 7]: 2.008
- Tube 3 (compound concentration) [1, 7]: 1.874
- Mean (compound concentration) [1, 8]: 1.27
- Tube 1 (compound concentration) [1, 8]: 1.334
- Tube 2 (compound concentration) [1, 8]: 1.273
- Tube 3 (compound concentration) [1, 8]: 1.201
- half-life [1, 9]: > 1440 min
- half-life [1, 10]: 1570 min
- Conc. (% of T0) [2, 11]: 100.0 % of T0
- Mean (compound concentration) [2, 11]: 2.42
- Tube 2 (compound concentration) [2, 11]: 2.424
- Tube 3 (compound concentration) [2, 11]: 2.518
- Tube 1 (compound concentration) [2, 12]: 2.314
- Mean (compound concentration) [2, 13]: 2.21
- Tube 1 (compound concentration) [2, 13]: 2.188
- Tube 2 (compound concentration) [2, 13]: 2.234
- Tube 3 (compound concentration) [2, 13]: 2.212
- Mean (compound concentration) [2, 14]: 1.73
- Tube 1 (compound concentration) [2, 14]: 1.843
- Tube 2 (compound concentration) [2, 14]: 1.803
- Tube 3 (compound concentration) [2, 14]: 1.545
- Mean (compound concentration) [2, 15]: 0.77
- Tube 1 (compound concentration) [2, 15]: 0.844
- Tube 2 (compound concentration) [2, 15]: 0.761
- Tube 3 (compound concentration) [2, 15]: 0.694
- remaining at 24 h, 10 µM ([2]; Conc. (% of T0), human plasma, 37° C., timepoint 24 h): 31.7%
- remaining at 2 h, 10 µM ([2]; Conc. (% of T0), human plasma, 37° C., timepoint 2 h): 91.4%
- remaining at 6 h, 10 µM ([2]; Conc. (% of T0), human plasma, 37° C., timepoint 6 h): 71.5%
- half-life [2, 16]: 871 min
- LogEC50 (anti-ALFA VHH): 2.576
- EC50 (anti-ALFA VHH): 377 nM
Molecule: CC(=O)N[C@@H](CO)C(=O)N[C@@H](CCCNC(=N)N)C(=O)N[C@@H](CC(C)C)C(=O)N[C@@H](CCC(=O)O)C(=O)N[C@H]1CC(=O)NCCCC[C@@H](C(=O)N[C@@H](CCCNC(=N)N)C(=O)N[C@@H](CC(C)C)C(=O)N[C@H](C(=O)N[C@@H](CCC(=O)O)C(N)=O)[C@@H](C)O)NC(=O)[C@H](CCCNC(=N)N)NC(=O)[C@H](CC(C)C)NC(=O)[C@H](CCC(=O)O)NC1=O [SD15196, Ac-Ser-Arg-Leu-Glu-(cyclo5)Asp-Glu-Leu-Arg-(cyclo9)Lys-Arg-Leu-Thr-Glu-NH2] (Ac-SRLEDELRKRLTE-NH2; lactam 5-9)

Molecule: Ac(C-Alexa680)(PEG6)PSRLE(E)ELR(K)RLTE-NH2 [cyclic ALFA peptide]
- binding to target expressing cells (AlexaFluor680 signal) [3]: bind only to target expressing cells previously incubated with the NbALFA×anti-Target Adaptor-Protein
- binding on the controls [3]: No binding

Molecule: Ac(C-Alexa680)(PEG6)PSRLEEELRRRLTE-NH2 ({Ac-C(Alexa680)-PEG6′}-PSRLEEELRRRLTE-NH2) [linear ALFA peptide, linear ALFA-peptide conjugated to AlexaFluor680, reference compound]
- binding to target expressing cells (AlexaFluor680 signal) [3]: bind only to target expressing cells previously incubated with the NbALFA×anti-Target Adaptor-Protein
- binding on the controls [3]: No binding

Reference: US20250154202A1, “CYCLIC EPITOPE TAGS” (BIONTECH SE, priority 2022, published 2025)
